Experiments:
Capan-2 = test: cells; type: functional, cell-based, Homo sapiens; conditions: Homo sapiens, Capan-2;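 note: Capan-2 cell growth inhibition, read out with a viability assay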
Description: SANGER: Inhibition of human Capan-2 cell growth in a cell viability assay.

D-542MG = test: cells; type: functional, cell-based, Homo sapiens; conditions: Homo sapiens, D-542MG
Description: SANGER: Inhibition of human D-542MG cell growth in a cell viability assay.

DBTRG-05MG = test: cells; type: functional, cell-based, Homo sapiens; conditions: Homo sapiens, DBTRG-05MG;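 note: cell viability assay measuring growth inhibition of human DBTRG-05MG cells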
Description: SANGER: Inhibition of human DBTRG-05MG cell growth in a cell viability assay.

EGI-1 = test: cells; type: functional, cell-based, Homo sapiens; conditions: Homo sapiens, EGI-1;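 note: cell viability readout used to gauge growth inhibition of EGI-1 cells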
Description: SANGER: Inhibition of human EGI-1 cell growth in a cell viability assay.

FTC-133 = test: cells; type: functional, cell-based, Homo sapiens; conditions: Homo sapiens, FTC-133
HCC1395 = test: cells; type: functional, cell-based, Homo sapiens; conditions: Homo sapiens, HCC1395;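 note: growth inhibition of HCC1395 cells, read out by a cell viability assay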
Description: SANGER: Inhibition of human HCC1395 cell growth in a cell viability assay.

HCC1806 = test: cells; type: functional, cell-based, Homo sapiens; conditions: Homo sapiens, HCC1806;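 note: growth inhibition of the cancer cell line, determined with a cell viability assay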
Description: SANGER: Inhibition of human HCC1806 cell growth in a cell viability assay.

HN = test: cells; type: functional, cell-based, Homo sapiens; conditions: Homo sapiens, HN
Description: SANGER: Inhibition of human HN cell growth in a cell viability assay.

HuP-T3 = test: cells; type: functional, cell-based, Homo sapiens; conditions: Homo sapiens, HuP-T3;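 note: HuP-T3 cell growth inhibition, read out with a cell viability assay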
Description: SANGER: Inhibition of human HuP-T3 cell growth in a cell viability assay.

JIYOYE = test: cells; type: functional, cell-based, Homo sapiens; conditions: Homo sapiens, JIYOYE
Description: SANGER: Inhibition of human JiyoyeP-2003 cell growth in a cell viability assay.

K052 = test: cells; type: functional, cell-based, Homo sapiens; conditions: Homo sapiens, K052;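 note: Read-out from a cell viability assay, IC50 reflecting suppression of K052 cell growth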
Description: SANGER: Inhibition of human K052 cell growth in a cell viability assay.

KU-19-19 = test: cells; type: functional, cell-based, Homo sapiens; conditions: Homo sapiens, KU-19-19
Description: SANGER: Inhibition of human KU-19-19 cell growth in a cell viability assay.

KYSE-270 = test: cells; type: functional, cell-based, Homo sapiens; conditions: Homo sapiens, KYSE-270;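 note: cell growth inhibition measured with a viability assay in the human KYSE-270 line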
Description: SANGER: Inhibition of human KYSE-270 cell growth in a cell viability assay.

KYSE-510 = test: cells; type: functional, cell-based, Homo sapiens; conditions: Homo sapiens, KYSE-510;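 note: cell viability readout used to measure how strongly growth of the cell line is suppressed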
Description: SANGER: Inhibition of human KYSE-510 cell growth in a cell viability assay.

LOUCY = test: cells; type: functional, cell-based, Homo sapiens; conditions: Homo sapiens, LOUCY;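 note: growth inhibition of human LOUCY cells, read out with a cell viability assay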
Description: SANGER: Inhibition of human LOUCY cell growth in a cell viability assay.

M059J = test: cells; type: functional, cell-based, Homo sapiens; conditions: Homo sapiens, M059J;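 note: growth inhibition of M059J cells, read out with a cell viability assay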
Description: SANGER: Inhibition of human M059J cell growth in a cell viability assay.

MDA-MB-157 = test: cells; type: functional, cell-based, Homo sapiens; conditions: Homo sapiens, MDA-MB-157
Description: SANGER: Inhibition of human MDA-MB-157 cell growth in a cell viability assay.

ME-180 = test: cells; type: functional, cell-based, Homo sapiens; conditions: Homo sapiens, ME-180;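 note: cell viability assay measuring growth inhibition of ME-180 cells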
Description: SANGER: Inhibition of human ME-180 cell growth in a cell viability assay.

MEL-JUSO = test: cells; type: functional, cell-based, Homo sapiens; conditions: Homo sapiens, MEL-JUSO;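 note: growth inhibition of human MEL-JUSO cells, read out with a cell viability assay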
Description: SANGER: Inhibition of human MEL-JUSO cell growth in a cell viability assay.

NCI-H1623 = test: cells; type: functional, cell-based, Homo sapiens; conditions: Homo sapiens, NCI-H1623;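 note: cell viability assay used as the read-out for growth inhibition of NCI-H1623 cells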
Description: SANGER: Inhibition of human NCI-H1623 cell growth in a cell viability assay.

NCI-H2227 = test: cells; type: functional, cell-based, Homo sapiens; conditions: Homo sapiens, NCI-H2227;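 note: growth inhibition of the human cell line, read out with a cell viability assay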
Description: SANGER: Inhibition of human NCI-H2227 cell growth in a cell viability assay.

NCI-H2347 = test: cells; type: functional, cell-based, Homo sapiens; conditions: Homo sapiens, NCI-H2347;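 note: growth inhibition of the cell line, read out with a cell viability assay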
Description: SANGER: Inhibition of human NCI-H2347 cell growth in a cell viability assay.

NCI-H810 = test: cells; type: functional, cell-based, Homo sapiens; conditions: Homo sapiens, NCI-H810;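 note: IC50 reflects inhibition of cancer cell line growth, read out with a cell viability assay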
Description: SANGER: Inhibition of human NCI-H810 cell growth in a cell viability assay.

OAW-28 = test: cells; type: functional, cell-based, Homo sapiens; conditions: Homo sapiens, OAW-28;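 note: growth inhibition of OAW-28 cells, read out with a cell viability assay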
Description: SANGER: Inhibition of human OAW-28 cell growth in a cell viability assay.

OE19 = test: cells; type: functional, cell-based, Homo sapiens; conditions: Homo sapiens, OE19;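 note: growth inhibition of OE19 cells, measured through a cell viability read-out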
Description: SANGER: Inhibition of human OE19 cell growth in a cell viability assay.

P31-FUJ = test: cells; type: functional, cell-based, Homo sapiens; conditions: Homo sapiens, P31-FUJ;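 note: growth inhibition of P31-FUJ cells, read out with a viability assay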
Description: SANGER: Inhibition of human P31-FUJ cell growth in a cell viability assay.

PA-1 = test: cells; type: functional, cell-based, Homo sapiens; conditions: Homo sapiens, PA-1;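 note: IC50 for suppression of PA-1 cell proliferation, determined with a cell viability read-out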
Description: SANGER: Inhibition of human PA-1 cell growth in a cell viability assay.

RPMI-6666 = test: cells; type: functional, cell-based, Homo sapiens; conditions: Homo sapiens, RPMI-6666
Description: SANGER: Inhibition of human RPMI-6666 cell growth in a cell viability assay.

SAS = test: cells; type: functional, cell-based, Homo sapiens; conditions: Homo sapiens, SAS;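 note: growth inhibition of SAS cells, read out with a cell viability assay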
Description: SANGER: Inhibition of human SAS cell growth in a cell viability assay.

SNU-423 = test: cells; type: functional, cell-based, Homo sapiens; conditions: Homo sapiens, SNU-423
Description: SANGER: Inhibition of human SNU-423 cell growth in a cell viability assay.

SW626 = test: cells; type: functional, cell-based, Homo sapiens; conditions: Homo sapiens, SW626;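 note: growth inhibition of SW626 cells, measured with a cell viability assay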
Description: SANGER: Inhibition of human SW626 cell growth in a cell viability assay.

SW948 = test: cells; type: functional, cell-based, Homo sapiens; conditions: Homo sapiens, SW948;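 note: growth inhibition of SW948 cells, read out with a cell viability assay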
Description: SANGER: Inhibition of human SW948 cell growth in a cell viability assay.

SiHa = test: cells; type: functional, cell-based, Homo sapiens; conditions: Homo sapiens, SiHa;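 note: Viability-based readout of growth inhibition in SiHa cells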
Description: SANGER: Inhibition of human SiHa cell growth in a cell viability assay.

T-24 = test: cells; type: functional, cell-based, Homo sapiens; conditions: Homo sapiens, T-24;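 note: growth inhibition of T-24 cells, read out with a cell viability assay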
Description: SANGER: Inhibition of human T-24 cell growth in a cell viability assay.

A204 = test: cells; type: functional, cell-based, Homo sapiens; conditions: Homo sapiens, A204;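 note: growth inhibition of human A204 cells, read out with a cell viability assay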
Description: SANGER: Inhibition of human A204 cell growth in a cell viability assay.

A-375 = test: cells; type: functional, cell-based, Homo sapiens; conditions: Homo sapiens, A-375;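 note: growth inhibition of A375 cells, read out with a cell viability assay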
Description: SANGER: Inhibition of human A375 cell growth in a cell viability assay.

AU565 = test: cells; type: functional, cell-based, Homo sapiens; conditions: Homo sapiens, AU565;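 note: cell viability assay measuring growth inhibition of human AU565 cells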
Description: SANGER: Inhibition of human AU565 cell growth in a cell viability assay.

ASPC1 = test: cells; type: functional, cell-based, Homo sapiens; conditions: Homo sapiens, ASPC1;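 note: growth inhibition of AsPC-1 cells, read out with a cell viability assay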
Description: SANGER: Inhibition of human AsPC-1 cell growth in a cell viability assay.

BC-3 = test: cells; type: functional, cell-based, Homo sapiens; conditions: Homo sapiens, BC-3;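 note: cell viability assay measuring growth inhibition of human BC-3 cells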
Description: SANGER: Inhibition of human BC-3 cell growth in a cell viability assay.

BL-70 = test: SANGER: Inhibition of human BL-70 cell growth in a cell viability assay.; type: functional, cell-based; conditions: Homo sapiens, BL-70
C32 = test: cells; type: functional, cell-based, Homo sapiens; conditions: Homo sapiens, C32;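 note: cell viability assay, with IC50 reflecting inhibition of C32 cell growth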
Description: SANGER: Inhibition of human C32 cell growth in a cell viability assay.

CA46 = test: cells; type: functional, cell-based, Homo sapiens; conditions: Homo sapiens, CA46;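 note: growth inhibition of human CA46 cells, read out by a cell viability assay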
Description: SANGER: Inhibition of human CA46 cell growth in a cell viability assay.

CAL-54 = test: cells; type: functional, cell-based, Homo sapiens; conditions: Homo sapiens, CAL-54;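 note: growth inhibition of CAL-54 cells, read out by a viability measurement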
Description: SANGER: Inhibition of human CAL-54 cell growth in a cell viability assay.

UACC-62 = test: cells; type: functional, cell-based, Homo sapiens; conditions: Homo sapiens, UACC-62;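 note: growth inhibition of human UACC-62 cells, read out by a cell viability assay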
Description: SANGER: Inhibition of human UACC-62 cell growth in a cell viability assay.

VMRC-RCZ = test: cells; type: functional, cell-based, Homo sapiens; conditions: Homo sapiens, VMRC-RCZ
Description: SANGER: Inhibition of human VMRC-RCZ cell growth in a cell viability assay.

WM-115 = test: cells; type: functional, cell-based, Homo sapiens; conditions: Homo sapiens, WM-115
Description: SANGER: Inhibition of human WM-115 cell growth in a cell viability assay.

COLO-678 = test: cells; type: functional, cell-based, Homo sapiens; conditions: Homo sapiens, COLO-678
Description: SANGER: Inhibition of human COLO-678 cell growth in a cell viability assay.

Oc1ccc2ccccc2c1SSc1c(O)ccc2ccccc12
IC50 (Capan-2): > 32000 nM
IC50 (D-542MG): 27200 nM
IC50 (DBTRG-05MG): > 32000 nM
IC50 (EGI-1): > 32000 nM
IC50 (FTC-133): > 32000 nM
IC50 (HCC1395): > 32000 nM
IC50 (HCC1806): > 32000 nM
IC50 (HN): > 32000 nM
IC50 (HuP-T3): > 32000 nM
IC50 (JIYOYE): 7260 nM
IC50 (K052): > 32000 nM
IC50 (KU-19-19): > 32000 nM
IC50 (KYSE-270): > 32000 nM
IC50 (KYSE-510): > 32000 nM
IC50 (LOUCY): > 32000 nM
IC50 (M059J): > 32000 nM
IC50 (MDA-MB-157): > 32000 nM
IC50 (ME-180): > 32000 nM
IC50 (MEL-JUSO): > 32000 nM
IC50 (NCI-H1623): > 32000 nM
IC50 (NCI-H2227): > 32000 nM
IC50 (NCI-H2347): > 32000 nM
IC50 (NCI-H810): > 32000 nM
IC50 (OAW-28): > 32000 nM
IC50 (OE19): > 32000 nM
IC50 (P31-FUJ): > 32000 nM
IC50 (PA-1): 27100 nM
IC50 (RPMI-6666): > 32000 nM
IC50 (SAS): > 32000 nM
IC50 (SNU-423): > 32000 nM
IC50 (SW626): > 32000 nM
IC50 (SW948): > 32000 nM
IC50 (SiHa): > 32000 nM
IC50 (T-24): > 32000 nM
IC50 (A204): > 32000 nM
IC50 (A-375): > 32000 nM
IC50 (AU565): 31200 nM
IC50 (ASPC1): > 32000 nM
IC50 (BC-3): > 32000 nM
IC50 (BL-70): 2040 nM
IC50 (C32): > 32000 nM
IC50 (CA46): 3660 nM
IC50 (CAL-54): > 32000 nM
IC50 (UACC-62): > 32000 nM
IC50 (VMRC-RCZ): 14100 nM
IC50 (WM-115): > 32000 nM
IC50 (COLO-678): > 32000 nM

N#Cc1c(O)c2c(-c3ccc(-c4ccccc4O)cc3)csc2[nH]c1=O
IC50 (Capan-2): > 1020 nM
IC50 (D-542MG): > 1020 nM
IC50 (DBTRG-05MG): > 1020 nM
IC50 (EGI-1): > 1020 nM
IC50 (FTC-133): > 1020 nM
IC50 (HCC1395): > 1020 nM
IC50 (HCC1806): > 1020 nM
IC50 (HN): > 1020 nM
IC50 (HuP-T3): > 1020 nM
IC50 (JIYOYE): 83.7 nM
IC50 (K052): 791 nM
IC50 (KU-19-19): > 1020 nM
IC50 (KYSE-270): > 1020 nM
IC50 (KYSE-510): > 1020 nM
IC50 (LOUCY): 96.4 nM
IC50 (M059J): > 1020 nM
IC50 (MDA-MB-157): 824 nM
IC50 (ME-180): > 1020 nM
IC50 (MEL-JUSO): > 1020 nM
IC50 (NCI-H1623): > 1020 nM
IC50 (NCI-H2227): > 1020 nM
IC50 (NCI-H2347): > 1020 nM
IC50 (NCI-H810): > 1020 nM
IC50 (OAW-28): > 1020 nM
IC50 (OE19): > 1020 nM
IC50 (P31-FUJ): > 1020 nM
IC50 (PA-1): > 1020 nM
IC50 (RPMI-6666): 68 nM
IC50 (SAS): > 1020 nM
IC50 (SNU-423): > 1020 nM
IC50 (SW626): > 1020 nM
IC50 (SW948): > 1020 nM
IC50 (SiHa): > 1020 nM
IC50 (T-24): > 1020 nM
IC50 (A204): > 1020 nM
IC50 (A-375): > 1020 nM
IC50 (AU565): > 1020 nM
IC50 (ASPC1): > 1020 nM
IC50 (BC-3): > 1020 nM
IC50 (BL-70): 108 nM
IC50 (C32): > 1020 nM
IC50 (CA46): 196 nM
IC50 (CAL-54): > 1020 nM
IC50 (UACC-62): > 1020 nM
IC50 (VMRC-RCZ): > 1020 nM
IC50 (WM-115): > 1020 nM
IC50 (COLO-678): > 1020 nM

— ChEMBL document CHEMBL1201861, “Genomics of Drug Sensitity in Cancer screening data, Wellcome Trust Sanger Institute”
